We go through 23 compounds from US11459325B2, “Heterocyclic compound” (Takeda Pharmaceutical Company Limited, priority 2018, dated 2022).

The test system of one experiment is GBA mutant human fibroblasts GM008760. Nature of the experiment: Glucosylceramide lowering assay. The conditions noted are these: 10 μM test compound, 4 days culture; GlcCer (C16:0)/Cer (C16:0) molar ratio of test compound group relative to DMSO control group x100; smaller value = glucosylceramide lowering. In kind it is cell-based. A digest of the protocol: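 Fibroblasts with mutant GBA were treated with 10 μM compound for 4 days. Lipids extracted in ethanol/isopropanol with deuterated internal standard; GlcCer (C16:0) and Cer (C16:0) quantified by RapidFire-MS/MS. Value is GlcCer/Cer ratio relative to DMSO control ×100.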
As for `Cc1cn(C)c(=O)c2c(C(=O)N3CC4CC4(c4ccc(Cl)cc4)C3)cn(C)c12` (centres unmarked) [Example 265, 3-((1-(4-chlorophenyl)-3-azabicyclo[3.1.0]hex-3-yl)carbonyl)-1,5,7-trimethyl-1,5-dihydro-4H-pyrrolo[3,2-c]pyridin-4-one], the “10 μM GlcCer/Cer (% of control)” value is given as 34 % of control.
For the compound `Cc1cn(C)c(=O)c2c(C(=O)N3CC4CC4(c4ccc(OC(F)(F)F)cc4)C3)cnn12` (centres unmarked) [Example 305, 5,7-dimethyl-3-((1-(4-(trifluoromethoxy)phenyl)-3-azabicyclo[3.1.0]hex-3-yl)carbonyl)pyrazolo[1,5-a]pyrazin-4(5H)-one], the “10 μM GlcCer/Cer (% of control)” value is given as 47 % of control.
The same measure, in the same setting: the figure for `Cc1cn(C)c(=O)c2c(C(=O)N3CC4CC4(c4ccc(Cl)cc4)C3)cnn12` (centres unmarked) [Example 307, 3-((1-(4-chlorophenyl)-3-azabicyclo[3.1.0]hex-3-yl)carbonyl)-5,7-dimethylpyrazolo[1,5-a]pyrazin-4(5H)-one] is 65 % of control; for `Cc1cn(C)c(=O)c2c(C(=O)N3CC4CC4(c4ccc(OC(F)(F)F)cc4)C3)cnn12` (centres unmarked) [Example 309, 5,7-dimethyl-3-((1-(4-(trifluoromethoxy)phenyl)-3-azabicyclo[3.1.0]hex-3-yl)carbonyl)pyrazolo[1,5-a]pyrazin-4(5H)-one] it is 44 % of control; for `Cc1cn(C)c(=O)c2c(C(=O)N3CC4CC4(c4ccc(OC(F)(F)F)cc4)C3)cnn12` (centres unmarked) [Example 310, 5,7-dimethyl-3-((1-(4-(trifluoromethoxy)phenyl)-3-azabicyclo[3.1.0]hex-3-yl)carbonyl)pyrazolo[1,5-a]pyrazin-4(5H)-one] it is 68 % of control.

The experiment is the same for the next values; noted with them: Homo sapiens, Fibroblast, 96 h; 10 μM test compound, 4 days culture; GlcCer (C16:0)/Cer (C16:0) molar ratio of test compound group relative to DMSO control group x100; smaller value = glucosylceramide lowering.
For `Cc1cn(C)c(=O)c2c(C(=O)N3CC4CC4(c4cccc5ccccc45)C3)cn(C)c12` (centres unmarked) [Example 262, 1,5,7-trimethyl-3-((1-(1-naphthyl)-3-azabicyclo[3.1.0]hex-3-yl)carbonyl)-1,5-dihydro-4H-pyrrolo[3,2-c]pyridin-4-one], the activity at 10 µM is 51%.
The same measure, in the same setting: as for `CCCCO[C@H]1CC[C@H](NC(=O)c2nn(C)c3c(C)cn(C)c(=O)c23)CC1` [Example 277, N-(trans-4-butoxycyclohexyl)-1,5,7-trimethyl-4-oxo-4,5-dihydro-1H-pyrazolo[4,3-c]pyridine-3-carboxamide], the figure is 77%; as for `Cc1cn(C)c(=O)c2c(C(=O)Nc3ccccc3OCc3ccccc3)n(C)nc12` [Example 282, N-(2-(benzyloxy)phenyl)-2,5,7-trimethyl-4-oxo-4,5-dihydro-2H-pyrazolo[4,3-c]pyridine-3-carboxamide], 66%.
For the compound `CCCCO[C@H]1CC[C@H](NC(=O)c2cnn3c(C)cn(C)c(=O)c23)CC1` [Example 283, N-(trans-4-butoxycyclohexyl)-5,7-dimethyl-4-oxo-4,5-dihydropyrazolo[1,5-a]pyrazine-3-carboxamide], the activity at 10 µM was 75%.
On the same count and under the same terms, the figure for `Cc1cn(C)c(=O)c2c(C(=O)NCc3noc(-c4ccc(Cl)cc4)n3)cnn12` [Example 286, N-((5-(4-chlorophenyl)-1,2,4-oxadiazol-3-yl)methyl)-5,7-dimethyl-4-oxo-4,5-dihydropyrazolo[1,5-a]pyrazine-3-carboxamide] is 67%; for `Cc1cn(C)c(=O)c2c(C(=O)N3CCC(Oc4ccc(OC(F)(F)F)cc4)CC3)cn(C)c12` [Example 288, 1,5,7-trimethyl-3-((4-(4-(trifluoromethoxy)phenoxy)piperidin-1-yl)carbonyl)-1,5-dihydro-4H-pyrrolo[3,2-c]pyridin-4-one] it is 27%; for `Cn1cc(C(=O)Nc2ccc(N3CCOCC3)cc2)c2c(=O)n(CC#N)ccc21` [Example 292, 5-(cyanomethyl)-1-methyl-N-(4-(morpholin-4-yl)phenyl)-4-oxo-4,5-dihydro-1H-pyrrolo[3,2-c]pyridine-3-carboxamide] it is 89%.
Regarding `COc1ccccc1-n1ccc2c(c(C(=O)Nc3ccc(N4CCOCC4)cc3)cn2C)c1=O` [Example 293, 5-(2-methoxyphenyl)-1-methyl-N-(4-(morpholin-4-yl)phenyl)-4-oxo-4,5-dihydro-1H-pyrrolo[3,2-c]pyridine-3-carboxamide], the activity at 10 µM stood at 52%.
Same read-out and setting: as for `Cn1cc(C(=O)Nc2ccc(N3CCOCC3)cc2)c2c(=O)n(-c3ccccc3OCC(F)(F)F)ccc21` [Example 294, 1-methyl-N-(4-(morpholin-4-yl)phenyl)-4-oxo-5-(2-(2,2,2-trifluoroethoxy)phenyl)-4,5-dihydro-1H-pyrrolo[3,2-c]pyridine-3-carboxamide], the figure is 36%.
The same measure, in the same setting: as for `COc1cc(F)ccc1-n1ccc2c(c(C(=O)Nc3ccc(N4CCOCC4)cc3)cn2C)c1=O` [Example 295, 5-(4-fluoro-2-methoxyphenyl)-1-methyl-N-(4-(morpholin-4-yl)phenyl)-4-oxo-4,5-dihydro-1H-pyrrolo[3,2-c]pyridine-3-carboxamide], the figure is 66%.
Turning to `Cn1cc(C(=O)NC(C)(C)c2ccc(Cl)cc2)c2c(=O)n(CC#N)ccc21` [Example 296, N-(2-(4-chlorophenyl)propan-2-yl)-5-(cyanomethyl)-1-methyl-4-oxo-4,5-dihydro-1H-pyrrolo[3,2-c]pyridine-3-carboxamide], the activity at 10 µM turned out to be 52%.
Still for that read-out and setting: the figure for `Cc1cn(C)c(=O)c2c(C(=O)N3CCC(Oc4ccc(OC(F)(F)F)cc4)CC3)cnn12` [Example 303, 5,7-dimethyl-3-((4-(4-(trifluoromethoxy)phenoxy)piperidin-1-yl)carbonyl)pyrazolo[1,5-a]pyrazin-4(5H)-one] is 60%.
As for `Cc1cn(C)c(=O)c2c(C(=O)N3CC4CC4(c4ccc(Cl)cc4)C3)cnn12` (centres unmarked) [Example 304, 3-((1-(4-chlorophenyl)-3-azabicyclo[3.1.0]hex-3-yl)carbonyl)-5,7-dimethylpyrazolo[1,5-a]pyrazin-4(5H)-one], the activity at 10 µM worked out at 64%.
Same read-out and setting: as for `Cc1cn(C)c(=O)c2c(C(=O)NC(C)(C)c3ccc(Cl)cc3)cnn12` [Example 306, N-(2-(4-chlorophenyl)propan-2-yl)-5,7-dimethyl-4-oxo-4,5-dihydropyrazolo[1,5-a]pyrazine-3-carboxamide], the figure is 51%; as for `COc1ccccc1-n1cc(C)n2ncc(C(=O)Nc3ccc(N4CCOCC4)cc3)c2c1=O` [Example 311, 5-(2-methoxyphenyl)-7-methyl-N-(4-(morpholin-4-yl)phenyl)-4-oxo-4,5-dihydropyrazolo[1,5-a]pyrazine-3-carboxamide], 54%.
Turning to `Cc1cn(C)c(=O)c2c(C(=O)N3CCC(Oc4ccc(C(F)(F)F)cc4)CC3)cnn12` [Example 313, 5,7-dimethyl-3-((4-(4-(trifluoromethyl)phenoxy)piperidin-1-yl)carbonyl)pyrazolo[1,5-a]pyrazin-4(5H)-one], the activity at 10 µM turned out to be 52%.
The same measure, in the same setting: as for `Cc1cn(CC#N)c(=O)c2c(C(=O)N3CCC(Oc4ccc(Cl)cc4)CC3)cnn12` [Example 330, {3-[4-(4-chlorophenoxy)piperidine-1-carbonyl]-7-methyl-4-oxopyrazolo[1,5-a]pyrazin-5(4H)-yl}acetonitrile], the figure is 68%.
In the case of `Cc1cn(-c2ccccc2OCC(F)(F)F)c(=O)c2c(C(=O)Nc3ccc(N4CCOCC4)cc3)cnn12` [Example 334, 7-methyl-N-[4-(morpholin-4-yl)phenyl]-4-oxo-5-[2-(2,2,2-trifluoroethoxy)phenyl]-4,5-dihydropyrazolo[1,5-a]pyrazine-3-carboxamide], the activity at 10 µM turned out to be 27%.
